Source: PubChem BioAssay AID330 (DTP/NCI, 2004)
Several values for one entry are separate records, joined by “and”; a condition that tells them apart may be missing. Equal values may be shown once. Inconclusive results and toxic doses are left out. Rule for the calls: active = survival T/C of 150% or more; inactive = T/C below 125% in these data. Peptide text beside a SMILES is read from it. * marks the point of attachment. Boc = CC(C)(C)OC(=O)*; NHNH2 = NN*

System: P388 leukemia ip, CD2F1 mice, survival T/C
Test: NCI In Vivo Anticancer Drug Screen. Data for tumor model P388 Leukemia (intraperitoneal) in CD2F1 (CDF1) mice
Conditions: endpoint: median survival time, higher = longer survival
Method in brief: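 Mice carrying the transplanted tumor received test compound or vehicle. Survival was recorded in each group, and the value is the treated-group measurement divided by that of the vehicle-treated control group.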

[1] = dose: 100.0 mg/kg/injection, schedule: Q01DX009 (ip), vehicle: Klucel (hydroxypropylcellulose) (HPC)
[2] = dose: 200.0 mg/kg/injection, schedule: Q01DX009 (ip), vehicle: Klucel (hydroxypropylcellulose) (HPC)
[3] = dose: 100.0 mg/kg/injection, schedule: Q04DX002 (ip), vehicle: saline with Tween-80
[4] = dose: 100.0 mg/kg/injection, schedule: Q04DX002 (ip), vehicle: Klucel (hydroxypropylcellulose) (HPC)
[5] = dose: 200.0 mg/kg/injection, schedule: Q04DX002 (ip), vehicle: Klucel (hydroxypropylcellulose) (HPC)
[6] = dose: 200.0 mg/kg/injection, schedule: Q04DX002 (ip), vehicle: saline with Tween-80
[7] = dose: 400.0 mg/kg/injection, schedule: Q04DX002 (ip), vehicle: saline with Tween-80
[8] = dose: 50.0 mg/kg/injection, schedule: Q01DX009 (ip), vehicle: Klucel (hydroxypropylcellulose) (HPC)
[9] = dose: 60.0 mg/kg/injection, schedule: Q01DX005 (ip), vehicle: saline with Tween-80
[10] = dose: 60.0 mg/kg/injection, schedule: Q01DX005 (ip), vehicle: Klucel (hydroxypropylcellulose) (HPC)
[11] = dose: 120.0 mg/kg/injection, schedule: Q01DX005 (ip), vehicle: Klucel (hydroxypropylcellulose) (HPC)
[12] = dose: 240.0 mg/kg/injection, schedule: Q01DX005 (ip), vehicle: Klucel (hydroxypropylcellulose) (HPC)
[13] = dose: 50.0 mg/kg/injection, schedule: Q01DX005 (ip), vehicle: saline with Tween-80
[14] = dose: 100.0 mg/kg/injection, schedule: Q01DX005 (ip), vehicle: saline with Tween-80
[15] = dose: 200.0 mg/kg/injection, schedule: Q01DX005 (ip), vehicle: saline with Tween-80
[16] = dose: 50.0 mg/kg/injection, schedule: Q01DX009 (ip), vehicle: saline
[17] = dose: 100.0 mg/kg/injection, schedule: Q01DX009 (ip), vehicle: saline
[18] = dose: 200.0 mg/kg/injection, schedule: Q01DX009 (ip), vehicle: saline
[19] = dose: 12.5 mg/kg/injection, schedule: Q01DX005 (ip), vehicle: saline with Tween-80
[20] = dose: 25.0 mg/kg/injection, schedule: Q01DX005 (ip), vehicle: saline with Tween-80

Measured: T/C

CCc1cc(Cc2cc(CC)cc(C(C)(C)C)c2O)c(O)c(C(C)(C)C)c1
inactive: [1] 107 % of control | [2] 90 % of control | dose: 400.0 mg/kg/injection, schedule: Q01DX009 (ip), vehicle: Klucel (hydroxypropylcellulose) (HPC) 104 % of control and 90 % of control

CSC(=S)c1c(O)ccc2ccccc12
inactive: [3] 102 % of control

Nn1c(-c2cnns2)n[nH]c1=S
inactive: dose: 100.0 mg/kg/injection, schedule: Q01DX001 (ip), vehicle: Klucel (hydroxypropylcellulose) (HPC) 100 % of control | dose: 200.0 mg/kg/injection, schedule: Q01DX001 (ip), vehicle: Klucel (hydroxypropylcellulose) (HPC) 100 % of control | dose: 400.0 mg/kg/injection, schedule: Q01DX001 (ip), vehicle: Klucel (hydroxypropylcellulose) (HPC) 105 % of control

CC1=C(O)CC(/C(C)=C\Cl)OC1=O (stereo not given)
inactive: [4] 101 % of control | [5] 98 % of control | dose: 400.0 mg/kg/injection, schedule: Q04DX002 (ip), vehicle: Klucel (hydroxypropylcellulose) (HPC) 104 % of control

Nc1ncnc2c1ncn2C1OC(CO)C(N)C1O (stereo not given)
inactive: [3] 102 % of control | [6] 102 % of control | [7] 105 % of control

N=C(N)c1ccc2[nH]c(/C=C/c3cc4cc(C(=N)N)ccc4o3)cc2c1
active: dose: 25.0 mg/kg/injection, schedule: Q04DX003 (ip), vehicle: suspension in saline 163 % of control | dose: 50.0 mg/kg/injection, schedule: Q04DX003 (ip), vehicle: suspension in saline 160 % of control | dose: 100.0 mg/kg/injection, schedule: Q04DX003 (ip), vehicle: suspension in saline 163 % of control

COC(=O)N1C(C)=Cc2ccccc2C1C#N (stereo not given)
inactive: dose: 50.0 mg/kg/injection, schedule: Q01DX009 (ip), vehicle: suspension in saline 100 % of control | dose: 100.0 mg/kg/injection, schedule: Q01DX009 (ip), vehicle: suspension in saline 98 % of control | dose: 200.0 mg/kg/injection, schedule: Q01DX009 (ip), vehicle: suspension in saline 95 % of control

CSCCC(NC(=O)C(Cc1c[nH]c2ccccc12)NC(=O)OC(C)(C)C)C(=O)NN (stereo not drawn) (Boc-Trp-Met-NHNH2; configuration not given here)
inactive: [8] 104 % of control and 105 % of control | [1] 118 % of control | [2] 119 % of control

c1ccc(C[n+]2ccc3ccccc3c2)cc1
inactive: dose: 6.25 mg/kg/injection, schedule: Q04DX003 (ip), vehicle: saline with Tween-80 101 % of control | dose: 12.5 mg/kg/injection, schedule: Q04DX003 (ip), vehicle: saline with Tween-80 100 % of control | dose: 25.0 mg/kg/injection, schedule: Q04DX003 (ip), vehicle: saline with Tween-80 101 % of control

Cc1nc2cc[nH]n2c(=O)c1CCc1ccccc1
inactive: [9] 90 % of control | dose: 120.0 mg/kg/injection, schedule: Q01DX005 (ip), vehicle: saline with Tween-80 88 % of control

COc1ccccc1C1=[N+]([O-])C(C)(C)C(c2ccccc2)C1 (stereo not given)
inactive: [4] 104 % of control | [5] 102 % of control

C[CH2][Pb]([Br])([CH2]C)[CH2]C
inactive: dose: 3.12 mg/kg/injection, schedule: Q01DX009 (ip), vehicle: saline with Tween-80 105 % of control and 97 % of control | dose: 6.25 mg/kg/injection, schedule: Q01DX009 (ip), vehicle: saline with Tween-80 103 % of control and 107 % of control | dose: 12.5 mg/kg/injection, schedule: Q01DX009 (ip), vehicle: saline with Tween-80 113 % of control and 114 % of control | dose: 25.0 mg/kg/injection, schedule: Q01DX009 (ip), vehicle: saline with Tween-80 106 % of control | dose: 50.0 mg/kg/injection, schedule: Q01DX009 (ip), vehicle: saline with Tween-80 107 % of control

COc1cccc(/C=C2/C(=O)N(c3ccc([N+](=O)[O-])cc3)N=C2C)c1
inactive: dose: 30.0 mg/kg/injection, schedule: Q01DX005 (ip), vehicle: Klucel (hydroxypropylcellulose) (HPC) 97 % of control | [10] 88 % of control | [11] 98 % of control | [12] 93 % of control

CC(SCCCCCCSC(C)C(=O)O)C(=O)O (stereo not given)
inactive: dose: 50.0 mg/kg/injection, schedule: Q01DX005 (ip), vehicle: Klucel (hydroxypropylcellulose) (HPC) 110 % of control | dose: 100.0 mg/kg/injection, schedule: Q01DX005 (ip), vehicle: Klucel (hydroxypropylcellulose) (HPC) 97 % of control | dose: 200.0 mg/kg/injection, schedule: Q01DX005 (ip), vehicle: Klucel (hydroxypropylcellulose) (HPC) 95 % of control

CC(N=c1cc2n(-c3ccc(Cl)cc3)c3ccccc3nc-2cc1Nc1ccc(Cl)cc1)c1ccccc1 (stereo not given)
inactive: dose: 1.87 mg/kg/injection, schedule: Q01DX005 (ip), vehicle: saline with Tween-80 98 % of control | dose: 3.75 mg/kg/injection, schedule: Q01DX005 (ip), vehicle: saline with Tween-80 101 % of control | dose: 7.5 mg/kg/injection, schedule: Q01DX005 (ip), vehicle: saline with Tween-80 104 % of control and 86 % of control | dose: 240.0 mg/kg/injection, schedule: Q01DX005 (ip), vehicle: saline with Tween-80 88 % of control

Cc1c(C)c2c(N)c3ccccc3nc2c2ccccc12
inactive: dose: 12.5 mg/kg/injection, schedule: Q01DX001 (ip), vehicle: saline with Tween-80 101 % of control | dose: 25.0 mg/kg/injection, schedule: Q01DX001 (ip), vehicle: saline with Tween-80 100 % of control | dose: 50.0 mg/kg/injection, schedule: Q01DX001 (ip), vehicle: saline with Tween-80 115 % of control | dose: 100.0 mg/kg/injection, schedule: Q01DX001 (ip), vehicle: saline with Tween-80 111 % of control

CC(C)C(Nc1ncnc2nc[nH]c12)C(=O)O (stereo not given)
inactive: [13] 102 % of control | [14] 102 % of control | [15] 103 % of control

c1cc2n[pH]nc2cn1 (stereo not given)
inactive: dose: 15.0 mg/kg/injection, schedule: Q01DX005 (ip), vehicle: saline 120 % of control | dose: 30.0 mg/kg/injection, schedule: Q01DX005 (ip), vehicle: saline 107 % of control

CC(=O)OC1CN(C)CC=C1c1ccccc1 (stereo not given)
inactive: dose: 15.0 mg/kg/injection, schedule: Q01DX005 (ip), vehicle: saline with Tween-80 91 % of control | dose: 30.0 mg/kg/injection, schedule: Q01DX005 (ip), vehicle: saline with Tween-80 97 % of control | [9] 100 % of control and 97 % of control

C/C(=N\NC(=S)Nc1ccc(C(=O)O)cc1)c1nccc2ccccc12
inactive: [13] 100 % of control | [14] 90 % of control | [15] 90 % of control

CCOC(=O)C(Br)(C(=O)OCC)C(C)C
inactive: [16] 111 % of control | [17] 109 % of control | [18] 120 % of control

Oc1ccc(Cl)cc1C1CCCCC1
inactive: [16] 100 % of control | [17] 100 % of control | [18] 98 % of control

O=CC(=C\c1cccs1)/C(C=O)=C\c1cccs1
inactive: [19] 107 % of control | [20] 108 % of control | [13] 108 % of control and 114 % of control | [14] 109 % of control

O=C(O)/C(=C\c1ccccn1)c1ccccc1
inactive: [3] 105 % of control | [6] 105 % of control | [7] 105 % of control

CCN(CC)C(=O)c1ccc[n+](CCC(N)=O)c1
inactive: dose: 100.0 mg/kg/injection, schedule: Q04DX003 (ip), vehicle: saline 90 % of control | dose: 200.0 mg/kg/injection, schedule: Q04DX003 (ip), vehicle: saline 100 % of control | dose: 400.0 mg/kg/injection, schedule: Q04DX003 (ip), vehicle: saline 100 % of control

COc1ccc2sc3c(C)ccc(NCCCC4CCCN5CCCCC45)c3c(=O)c2c1 (stereo not given)
inactive: dose: 6.25 mg/kg/injection, schedule: Q01DX005 (ip), vehicle: saline with Tween-80 94 % of control | [19] 92 % of control | [20] 89 % of control

COc1ccc(C)cc1NC(=O)SC(C)C
inactive: [10] 89 % of control | [11] 86 % of control | [12] 93 % of control

CC(=O)c1ccc(Cl)c(N=Cc2cc(Cl)cc(Cl)c2O)c1
inactive: [8] 91 % of control | [1] 93 % of control | [2] 98 % of control
